Measurements as given in patent US9464326B2, “Total and phosphorylated IL-1 receptor-associated kinase-1 and IL-1 receptor-associated kinase-4 as a biomarker for cancer progression and chemotherapy resistance” (University of Maryland, Baltimore, priority 2012, dated 2016).

Assays:
CCRF-CEM cells = test: Western blot of signaling proteins in CCRF-CEM; type: cell-based, human; details: 5 uM, 48 hours, FIG. 3D
Description: (FIG. 3C). […] (FIG. 3D). […] (FIG. 3D).

melanoma cells = test: Western blot of phosphorylated NF-KB; type: cell-based, human; details: 48 hrs, vs DMSO, FIG. 7C
Method: FIG. 7. TLR and TLR signaling-related protein expression profiles on melanoma cell lines. (A) The expression levels of TLR1-TLR10 and various TLR-related proteins were examined by Western blot in samples from human melanoma cell lines. (B) The TLR1-TLR2 ligand Pam3CysK4 was added to A375 cells for 48 hrs. Cytokine and chemokine production by was determined using a Milliplex cytokine/chemokine array. (C) IRAK-1,-4 inhibitor or vehicle alone (DMSO) was added to melanoma cells for 48 hrs. The level of phosphorylated and non-phosphorylated p65 subunit of NF-KB was determined by Western blot. (D) Cytokine and chemokine levels in the supernatant A375 cell culture were examined using a Milliplex cytokine/chemokine array 48 hours after adding IRAK-1,-4 inhibitor or DMSO. ANOVA; **P<0.001, *P<0.05.
Total cell extracts were prepared from melanoma cells. […] Melanoma tissue arrays were purchased from US Biomax, Inc (Rockville, Md.). For immunohistochemical staining samples were stained with mouse monoclonal anti-human phosphor-IRAK.-4 antibody (Abnova; dilution, 3.5 μg/ml) or normal mouse serum. […] IHC specimens were analyzed using “quick score” system in which the intensity of the immunohistochemical reaction was scored by multiplying the intensity 1 (weak), 2 (moderate), and 3 (strong) and the proportion of cells staining positively 0 (<10%), 1 (10-25%), 2 (26-50%), 3 (51-75%) or 4 (>75%).

`O=C(Nc1nc2ccccc2n1CCN1CCOCC1)c1cccc([N+](=O)[O-])c1` [IRAK-1,-4 inhibitor] was tested, and the “decrease of phosphorylated-p65 levels” value (CCRF-CEM cells) was “four-fold”, the p-ERK1/2 levels (CCRF-CEM cells) was “did not alter” and the “reduction of p-AKT expression levels” value (CCRF-CEM cells) was “five-fold”. For the same compound, the “reduction of p-mTOR expression levels” value (CCRF-CEM cells) was “approximately six-fold” and the “phosphorylated NF-KB (p-NF-KB)” value (melanoma cells) was “marked reduction”.
